The target of this experiment is Polyadenylate-binding protein 1 (Homo sapiens) (UniProt P11940). As to the kind of experiment: MLLE binding blockers, Cy5 peptide tracer – biochemical, fluorescence polarization, Cy5-PAM2 peptide, secondary, miRNA deadenylation inhibitor project, dose response (AID 602260). To be noted: GST-Mlle / Cy5-PAM2 peptide fluorescence polarization. Background: Polarisation of emitted light reports the rotation of a fluorescent probe.

The structures appear in SMILES notation. The source made the active and inactive calls.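 The calls were made as follows: active = mean IC50 at or below 20 µM; inactive = the rest.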 Some results are limits rather than exact numbers.

Sequence of Polyadenylate-binding protein 1 (Homo sapiens) (P11940 whole entry, looked up): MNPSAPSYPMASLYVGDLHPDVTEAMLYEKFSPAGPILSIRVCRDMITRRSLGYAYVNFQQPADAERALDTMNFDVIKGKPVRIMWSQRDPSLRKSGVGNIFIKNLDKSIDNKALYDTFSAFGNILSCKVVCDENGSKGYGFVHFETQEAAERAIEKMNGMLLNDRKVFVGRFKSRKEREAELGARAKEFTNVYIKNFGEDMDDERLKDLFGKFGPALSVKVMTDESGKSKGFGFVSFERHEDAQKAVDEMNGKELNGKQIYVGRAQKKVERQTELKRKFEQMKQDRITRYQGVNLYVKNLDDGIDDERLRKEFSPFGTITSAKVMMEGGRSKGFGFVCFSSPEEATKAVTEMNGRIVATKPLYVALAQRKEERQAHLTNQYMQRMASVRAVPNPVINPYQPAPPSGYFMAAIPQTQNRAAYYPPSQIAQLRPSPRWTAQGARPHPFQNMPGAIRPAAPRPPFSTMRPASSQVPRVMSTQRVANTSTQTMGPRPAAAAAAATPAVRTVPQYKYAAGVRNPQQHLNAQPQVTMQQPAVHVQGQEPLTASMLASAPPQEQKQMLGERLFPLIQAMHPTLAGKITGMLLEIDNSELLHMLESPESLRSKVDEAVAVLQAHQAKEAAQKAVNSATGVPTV

What is called IC50 is the midpoint of a concentration-inhibition curve. Take `C[c-]1[c-](C)[c-](C)[c-](C)[c-]1C.[Fe].c1cc2nccc(N3CCCC3)[c-]2c1` (stereo not drawn): the IC50 was > 66 µM (inactive).

For the molecule `COc1ccc(NC(=O)Nc2ccc([N+](=O)[O-])cc2)cn1`, the IC50 entry was “inactive”.

With `CCOC(=O)c1c(/N=C/c2cccc([N+](=O)[O-])c2O)sc(C)c1C`, the IC50 entry was “inactive”.

The record behind these values is PubChem BioAssay AID602260 (Sanford-Burnham Center for Chemical Genomics, 2012).
